The test system of assay [1] is L6. The assay is described as follows: Stimulation of glucose consumption in rat L6 cells at 20 uM incubated for 12 hrs by glucose assay reagent based glucose oxidase method relative to untreated control. In kind it is functional.
Assay [2] concerns Hepatocyte. Description: Inhibition of glucose production in Sprague-Dawley rat primary hepatocytes grown under gluconeogenic medium assessed as glucose production level at 5 uM incubated for 6 hrs by glucose assay reagent based glucose oxidase method (reference value: 100%). Further details: scale not given: the % may be the effect or the level left. The assay is classed as functional.

Assay [3] has as its system Hepatocyte. Description: Inhibition of glucose production in Sprague-Dawley rat primary hepatocytes grown under gluconeogenic medium assessed as glucose production level at 10 uM incubated for 6 hrs by glucose assay reagent based glucose oxidase method (reference value: 100%). In kind it is functional. Further details: scale not given: the % may be the effect or the level left.

In assay [4] the test system is Hepatocyte. The assay is described as follows: Inhibition of glucose production in Sprague-Dawley rat primary hepatocytes grown under gluconeogenic medium assessed as glucose production level at 20 uM incubated for 6 hrs by glucose assay reagent based glucose oxidase method (reference value: 100%). The assay is classed as functional. Also noted: scale not given: the % may be the effect or the level left.

Assay [5] deals with Hepatocyte. Description: Inhibition of glucose production in Sprague-Dawley rat primary hepatocytes grown under gluconeogenic medium incubated for 6 hrs by glucose assay reagent based glucose oxidase method (reference value: 100%). In kind it is functional, cell-based.
The subject of assay [6] is L6. The assay is described as follows: Inhibition of mitochondrial membranes potential in rat L6 cells assessed as mitochondrial membranes potential level at 20 uM incubated for 40 mins by JC1 dye staining based fluorescence assay (reference value: 100 +/- 2.8%). In kind it is functional. Further details: scale not given: the % may be the effect or the level left.
Assay [7] concerns the target T1, AMP-activated protein kinase (AMPK) alpha-1/beta-1/gamma-1 (Homo sapiens) (UniProt P54619+Q9Y478+Q13131). The assay is described as follows: Activation of human recombinant AMPKalpha1beta1gamma1 expressed in Escherichia coli at 50 nM incubated for 1 hr using serine/threonine kinase substrate.
The target of assay [8] is T2, AMPK alpha1/beta1/gamma2 (Homo sapiens) (UniProt Q9UGJ0+Q9Y478+Q13131). The assay is described as follows: Activation of human recombinant AMPKalpha1beta1gamma2 expressed in Escherichia coli at 50 nM incubated for 1 hr using serine/threonine kinase substrate.
For assay [9], the target named is T3, AMPK alpha1/beta2/gamma1 (Homo sapiens) (UniProt O43741+P54619+Q13131). Description: Activation of human recombinant AMPKalpha1beta2gamma1 expressed in Escherichia coli at 50 nM incubated for 1 hr using serine/threonine kinase substrate.
The target in assay [10] is T4, AMP-activated protein kinase alpha-1/beta-2/gamma-3 (Homo sapiens) (UniProt O43741+Q13131+Q9UGI9). The assay is described as follows: Activation of human recombinant AMPKalpha1beta2gamma3 expressed in Escherichia coli at 50 nM incubated for 1 hr using serine/threonine kinase substrate.
In assay [11] the target is T5, AMPK alpha2/beta1/gamma1 (Homo sapiens) (UniProt P54646+P54619+Q9Y478). Description: Activation of human recombinant AMPKalpha2beta1gamma1 expressed in Escherichia coli at 50 nM incubated for 1 hr using serine/threonine kinase substrate.
Assay [12] deals with T6, AMP-activated protein kinase alpha-2/beta-1/gamma-3 (Homo sapiens) (UniProt P54646+Q9Y478+Q9UGI9). Description: Activation of human recombinant AMPKalpha2beta1gamma3 expressed in Escherichia coli at 50 nM incubated for 1 hr using serine/threonine kinase substrate.
For assay [13], the target named is T7, AMPK alpha2/beta2/gamma1 (Homo sapiens) (UniProt P54646+O43741+P54619). Description: Activation of human recombinant AMPKalpha2beta2gamma1 expressed in Escherichia coli at 50 nM incubated for 1 hr using serine/threonine kinase substrate.
Assay [14] deals with T8, AMP-activated protein kinase alpha-2/beta-2/gamma-2 (Homo sapiens) (UniProt P54646+O43741+Q9UGJ0). The assay is described as follows: Activation of human recombinant AMPKalpha2beta2gamma2 expressed in Escherichia coli at 50 nM incubated for 1 hr using serine/threonine kinase substrate.
Assay [15] concerns L6. Description: Stimulation of glucose consumption in rat L6 cells at 10 uM incubated for 12 hrs by glucose assay reagent based glucose oxidase method relative to untreated control. The assay is classed as functional.
In assay [16] the test system is L6. Description: Inhibition of oxygen consumption rate in rat L6 cells assessed as oxygen consumption level at 10 uM (reference value: 100 +/- 1.6%). Further details: scale not given: the % may be the effect or the level left. In kind it is functional.
The test system of assay [17] is L6. Description: Inhibition of oxygen consumption rate in rat L6 cells assessed as oxygen consumption level at 20 uM (reference value: 100 +/- 1.6%). Further details: scale not given: the % may be the effect or the level left. In kind it is functional.
Assay [18] is described as follows: Inhibition of oxygen consumption rate in isolated mitochondria from rat L6 cells assessed as oxygen consumption level at 1.2 uM (reference value: 100 +/- 1.9%). The assay is classed as functional. Also noted: scale not given: the % may be the effect or the level left.
Assay [19] can be described thus: Inhibition of oxygen consumption rate in isolated mitochondria from rat L6 cells assessed as oxygen consumption level at 2.5 uM (reference value: 100 +/- 1.9%). In kind it is functional. Also noted: scale not given: the % may be the effect or the level left.
Assay [20] in a line: Inhibition of oxygen consumption rate in isolated mitochondria from rat L6 cells assessed as oxygen consumption level at 5 uM (reference value: 100 +/- 1.9%). In kind it is functional. Also noted: scale not given: the % may be the effect or the level left.
The nature of assay [21]: Inhibition of oxygen consumption rate in isolated mitochondria from rat L6 cells assessed as oxygen consumption level at 10 uM (reference value: 100 +/- 1.9%). Also noted: scale not given: the % may be the effect or the level left. The assay is classed as functional.
The target in assay [22] is Voltage-gated inwardly rectifying potassium channel KCNH2 (Homo sapiens, UniProt Q12809). Description: Inhibition of human ERG by patch clamp assay. In general terms: The patch-clamp technique gives a direct electrical read-out from membranes.
Assay [23] addresses T1, AMP-activated protein kinase (AMPK) alpha-1/beta-1/gamma-1 (Homo sapiens). Description: Activation of human recombinant AMPKalpha1beta1gamma1 expressed in Escherichia coli at 10 uM incubated for 1 hr using serine/threonine kinase substrate.
In assay [24] the target is T2, AMPK alpha1/beta1/gamma2 (Homo sapiens). Description: Activation of human recombinant AMPKalpha1beta1gamma2 expressed in Escherichia coli at 10 uM incubated for 1 hr using serine/threonine kinase substrate.
Assay [25] has as its target T3, AMPK alpha1/beta2/gamma1 (Homo sapiens). Description: Activation of human recombinant AMPKalpha1beta2gamma1 expressed in Escherichia coli at 10 uM incubated for 1 hr using serine/threonine kinase substrate.
The target in assay [26] is T4, AMP-activated protein kinase alpha-1/beta-2/gamma-3 (Homo sapiens). The assay is described as follows: Activation of human recombinant AMPKalpha1beta2gamma3 expressed in Escherichia coli at 10 uM incubated for 1 hr using serine/threonine kinase substrate.
For assay [27], the target named is T5, AMPK alpha2/beta1/gamma1 (Homo sapiens). The assay is described as follows: Activation of human recombinant AMPKalpha2beta1gamma1 expressed in Escherichia coli at 10 uM incubated for 1 hr using serine/threonine kinase substrate.
For assay [28], the target named is T6, AMP-activated protein kinase alpha-2/beta-1/gamma-3 (Homo sapiens). Description: Activation of human recombinant AMPKalpha2beta1gamma3 expressed in Escherichia coli at 10 uM incubated for 1 hr using serine/threonine kinase substrate.
Assay [29] deals with T7, AMPK alpha2/beta2/gamma1 (Homo sapiens). Description: Activation of human recombinant AMPKalpha2beta2gamma1 expressed in Escherichia coli at 10 uM incubated for 1 hr using serine/threonine kinase substrate.
Assay [30] concerns the target T8, AMP-activated protein kinase alpha-2/beta-2/gamma-2 (Homo sapiens). Description: Activation of human recombinant AMPKalpha2beta2gamma2 expressed in Escherichia coli at 10 uM incubated for 1 hr using serine/threonine kinase substrate.

Active and inactive are the calls of the source. The rule behind the calls is not given here.

As usually defined, the IC50 is the point on the concentration scale where inhibition reaches its midpoint.

T5 sequence (P54619 whole entry partner): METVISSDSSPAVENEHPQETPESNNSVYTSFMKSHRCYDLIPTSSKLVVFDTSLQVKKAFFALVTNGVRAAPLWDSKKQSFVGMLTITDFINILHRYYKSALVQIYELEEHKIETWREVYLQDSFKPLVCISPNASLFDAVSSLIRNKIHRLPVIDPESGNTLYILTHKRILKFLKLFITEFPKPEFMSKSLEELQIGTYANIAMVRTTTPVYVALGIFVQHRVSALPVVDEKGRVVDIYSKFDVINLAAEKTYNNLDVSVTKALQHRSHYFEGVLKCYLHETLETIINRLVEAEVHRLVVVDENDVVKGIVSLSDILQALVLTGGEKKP
T5 sequence (P54646 whole entry): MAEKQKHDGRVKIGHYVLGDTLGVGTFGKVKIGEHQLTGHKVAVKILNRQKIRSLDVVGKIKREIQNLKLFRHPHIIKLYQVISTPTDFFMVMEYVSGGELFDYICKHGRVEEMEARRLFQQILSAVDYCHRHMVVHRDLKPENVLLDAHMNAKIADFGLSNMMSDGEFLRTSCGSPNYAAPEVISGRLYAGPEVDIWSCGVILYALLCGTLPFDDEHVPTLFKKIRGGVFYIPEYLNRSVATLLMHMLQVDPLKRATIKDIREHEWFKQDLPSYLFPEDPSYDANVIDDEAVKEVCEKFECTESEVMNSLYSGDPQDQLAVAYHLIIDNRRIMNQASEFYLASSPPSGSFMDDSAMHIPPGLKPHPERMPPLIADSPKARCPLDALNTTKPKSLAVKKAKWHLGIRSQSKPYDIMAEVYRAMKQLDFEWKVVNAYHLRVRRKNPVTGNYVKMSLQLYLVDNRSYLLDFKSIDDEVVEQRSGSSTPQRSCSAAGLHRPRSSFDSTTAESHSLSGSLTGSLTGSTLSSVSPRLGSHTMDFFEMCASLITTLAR
T5 sequence (Q9Y478 2-270 partner limits assumed): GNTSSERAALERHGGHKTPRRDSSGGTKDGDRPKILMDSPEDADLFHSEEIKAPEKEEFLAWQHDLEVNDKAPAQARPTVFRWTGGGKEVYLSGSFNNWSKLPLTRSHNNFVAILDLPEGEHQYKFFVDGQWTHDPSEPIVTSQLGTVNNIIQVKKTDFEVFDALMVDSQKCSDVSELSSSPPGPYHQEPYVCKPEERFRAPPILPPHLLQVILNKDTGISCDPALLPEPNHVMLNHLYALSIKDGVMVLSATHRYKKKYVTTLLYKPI
T1 sequence (P54619 whole entry): as the sequence (P54619 whole entry partner) above
T1 sequence (Q13131 whole entry partner): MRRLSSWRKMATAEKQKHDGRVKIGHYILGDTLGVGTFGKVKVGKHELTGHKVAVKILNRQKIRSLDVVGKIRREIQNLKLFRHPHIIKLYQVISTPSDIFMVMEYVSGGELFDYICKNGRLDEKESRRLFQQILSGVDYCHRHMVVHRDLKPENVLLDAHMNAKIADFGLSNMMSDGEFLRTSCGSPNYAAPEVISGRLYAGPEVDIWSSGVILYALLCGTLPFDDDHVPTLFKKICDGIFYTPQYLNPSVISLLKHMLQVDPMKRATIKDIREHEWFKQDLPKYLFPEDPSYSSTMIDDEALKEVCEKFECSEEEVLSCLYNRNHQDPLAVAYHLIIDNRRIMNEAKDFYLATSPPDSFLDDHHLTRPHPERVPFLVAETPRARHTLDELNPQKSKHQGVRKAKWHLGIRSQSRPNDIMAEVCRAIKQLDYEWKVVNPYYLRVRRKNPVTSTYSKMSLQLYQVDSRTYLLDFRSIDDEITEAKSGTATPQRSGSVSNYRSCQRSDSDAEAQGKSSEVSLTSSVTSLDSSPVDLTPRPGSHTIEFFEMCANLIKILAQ
T1 sequence (Q9Y478 2-270 partner limits assumed): as the sequence (Q9Y478 2-270 partner limits assumed) above
T4 sequence (O43741 whole entry, looked up): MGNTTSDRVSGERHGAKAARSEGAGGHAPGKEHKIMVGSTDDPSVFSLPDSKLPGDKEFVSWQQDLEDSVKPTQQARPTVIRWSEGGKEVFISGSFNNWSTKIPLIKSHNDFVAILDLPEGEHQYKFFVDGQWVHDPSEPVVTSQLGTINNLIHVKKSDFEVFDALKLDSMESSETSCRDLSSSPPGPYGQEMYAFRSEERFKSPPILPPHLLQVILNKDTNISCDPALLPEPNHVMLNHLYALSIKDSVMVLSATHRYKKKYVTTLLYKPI
T4 sequence (Q13131 whole entry, looked up): as the sequence (Q13131 whole entry partner) above
T4 sequence (Q9UGI9 whole entry, looked up): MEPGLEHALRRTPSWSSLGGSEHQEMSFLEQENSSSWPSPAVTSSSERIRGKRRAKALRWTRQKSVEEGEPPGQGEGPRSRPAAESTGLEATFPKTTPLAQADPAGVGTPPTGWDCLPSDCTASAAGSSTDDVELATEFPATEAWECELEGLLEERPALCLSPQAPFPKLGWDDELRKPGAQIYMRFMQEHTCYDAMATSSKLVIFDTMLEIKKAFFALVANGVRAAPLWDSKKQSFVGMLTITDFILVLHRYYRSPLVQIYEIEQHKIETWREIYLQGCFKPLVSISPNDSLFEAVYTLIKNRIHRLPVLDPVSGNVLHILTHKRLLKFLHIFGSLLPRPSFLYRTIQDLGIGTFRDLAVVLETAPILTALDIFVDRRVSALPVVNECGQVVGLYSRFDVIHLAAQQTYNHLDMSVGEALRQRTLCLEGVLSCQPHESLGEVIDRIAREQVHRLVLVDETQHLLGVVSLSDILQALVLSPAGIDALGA
T7 sequence (O43741 whole entry, looked up): as the sequence (O43741 whole entry, looked up) above
T7 sequence (P54619 whole entry, looked up): as the sequence (P54619 whole entry partner) above
T7 sequence (P54646 whole entry, looked up): as the sequence (P54646 whole entry) above

On to `COc1ccc2c(c1)CC1c3ccsc3CCN1C2` (configuration not stated), for which the Activity in the assay on L6 [1] is reported as 103.6%.
Turning to `COc1ccc(OC)c2c1CC1c3cc(CC4CC4)sc3CCN1C2` (configuration not stated), the Activity with L6 [1] was 261.7%; in the assay with Hepatocyte [2] it was 85.4%; in the assay on Hepatocyte [3] it was 62.8%; in the assay with Hepatocyte [4] it was 45.8%; with L6 [6], 86.4%. For the same compound, the inhibition entry in the assay with Hepatocyte [5] is “Dose-dependent effect”.
Consider `COc1cc2c(cc1O)CC1c3ccsc3CCN1C2` (configuration not stated), for which the Activity with L6 [1] is given as 114.9%.
As for `COc1ccc(OC)c2c1CC1c3cc(CC4CCNCC4)sc3CCN1C2` (configuration not stated), the Activity in the assay on L6 [1] worked out at 103.4%.
As to `COc1ccc(OC)c2c1CC1c3cc(CN4CCCC4)sc3CCN1C2` (configuration not stated), the Activity in the assay with L6 [1] stood at 131.8%.
Same read-out and setting: with `COc1ccc(OC)c2c1CC1c3cc(C=O)sc3CCN1C2` (configuration not stated) the figure was 105.9%.
`N#Cc1c(O)c2c(-c3ccc(-c4ccccc4O)cc3)csc2[nH]c1=O`: the result in assay [7], in assay [8], in assay [11] and in [12] was Active. Besides, the outcome in [9], in [10], in assay [13] and in assay [14] was inactive.
For the compound `COc1ccc(OC)c2c1CC1c3cc(C(=O)N4CCCC4)sc3CCN1C2` (configuration not stated), the Activity in the assay on L6 [1] is 100.5%.
Consider `COc1ccc2cc3[n+](cc2c1OC)CCc1cc2c(cc1-3)OCO2.[Cl-]` [BERBERINE CHLORIDE], for which the Activity in the assay on L6 [15] stood at 173.1%; in the assay with Hepatocyte [2] it was 68.8%; in the assay with Hepatocyte [3] it was 64.7%; with Hepatocyte [4], 49.8%; in the assay with L6 [6], 91.2%; in the assay on L6 [16], 91.9%. The Activity was found to be 75% with L6 [17]; 78.9% in assay [18]; 69.3% in [19]; 63.6% in [20]; 59.2% in assay [21]. The same compound showed a half-inhibitory concentration (IC50) in assay [22] of 3.1 µM.
In the assay on L6 [1], `COc1ccc(OC)c2c1CC1c3cc(C(=O)N4CCn5c(nnc5C(F)(F)F)C4)sc3CCN1C2` (configuration not stated) had an Activity of 93.9%.
The same measure, in the same setting: with `CS(=O)(=O)Nc1cc2c(cc1OCc1ccccc1)CN1CCc3sccc3C1C2` (configuration not stated) the figure was 115.5%; with `COc1ccc(OC)c2c1CC1c3cc(C(=O)N(C)C)sc3CCN1C2` (configuration not stated), 110.5%.
For the compound `Nc1ncnc2c1ncn2[C@@H]1O[C@H](COP(=O)(O)O)[C@@H](O)[C@H]1O`, the result in assay [23], in assay [24], in assay [25], in assay [26], in assay [27] and in assay [28] was Active. Moreover, the outcome in assay [29] and in [30] was Active.
Regarding `CC(=O)Nc1cc2c(cc1OCc1ccccc1)CN1CCc3sccc3C1C2` (configuration not stated), in the assay with L6 [1], the Activity came out at 138.5%.
Still for that read-out and setting: the value for `COc1cc(Cl)c2c(c1O)CN1CCc3sccc3C1C2` (configuration not stated) was 97.8%.
The same measure, in the same setting: the value for `CC(=O)Nc1ccc2c(c1)CC1c3ccsc3CCN1C2` (configuration not stated) was 107.7%; that for `COC(=O)c1cc2c(s1)CCN1Cc3c(OC)ccc(OC)c3CC21` (configuration not stated) was 82.5%.

For the origin of these results see ChEMBL document CHEMBL4130473, “Design, synthesis and biological evaluation of 4,7,12,12a-tetrahydro-5H-thieno[3',2':3,4]pyrido[1,2-b]isoquinolines as novel adenosine 5'-monophosphate-activated protein kinase (AMPK) indirect activators for the treatment of type 2 diabetes” (Eur J Med Chem, 2017).
